Source: ChEMBL document CHEMBL1201862, “PubChem BioAssay data set” (2004)
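In this assay, cells in 96-well plates receive the compound at five concentrations for 48 hours. Endpoints are linearly interpolated between the surrounding concentrations. Abbreviation: GI50, concentration required for 50% inhibition of growth.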 Calls of active or inactive are those of the source. Rule as the data show it: active = GI50 up to about 1.1 µM and inactive = higher.

Columns and labels:
Assay in all cases: NCI anticancer screen, dose series, 48 h
SN12C = tested on: SN12C
786-0 = tested on: 786-0
NCI-H23 = tested on: NCI-H23
UACC-257 = tested on: UACC-257
SF-295 = tested on: SF-295
U-251 = tested on: U-251
NCI-H522 = tested on: NCI-H522
CAKI-1 = tested on: CAKI-1
SF-268 = tested on: SF-268
MOLT-4 = tested on: MOLT-4
OVCAR-3 = tested on: OVCAR-3
UACC-62 = tested on: UACC-62
OVCAR-4 = tested on: OVCAR-4
UO-31 = tested on: UO-31
SK-MEL-28 = tested on: SK-MEL-28
HOP-92 = tested on: HOP-92
DLD-1 = tested on: DLD-1
NCI-H460 = tested on: NCI-H460
HT-29 = tested on: HT-29
A498 = tested on: A498
CCRF-CEM = tested on: CCRF-CEM
OVCAR-5 = tested on: OVCAR-5
HCT-116 = tested on: HCT-116
HCT-15 = tested on: HCT-15
SR = tested on: SR
SF-539 = tested on: SF-539
NCI-H226 = tested on: NCI-H226
K562 = tested on: K562
RPMI-8226 = tested on: RPMI-8226
COLO 205 = tested on: COLO 205
SK-OV-3 = tested on: SK-OV-3
RXF 393 = tested on: RXF 393
EKVX = tested on: EKVX
A549 = tested on: A549
SK-MEL-5 = tested on: SK-MEL-5
SNB-78 = tested on: SNB-78
SNB-19 = tested on: SNB-19
OVCAR-8 = tested on: OVCAR-8
HCC 2998 = tested on: HCC 2998
SK-MEL-2 = tested on: SK-MEL-2
IGROV-1 = tested on: IGROV-1
M14 = tested on: M14
Malme-3M = tested on: Malme-3M
KM12 = tested on: KM12
DMS-114 = tested on: DMS-114
ACHN = tested on: ACHN
M19-MEL = tested on: M19-MEL
HOP-62 = tested on: HOP-62
DU-145 = tested on: DU-145
BT-549 = tested on: BT-549
MDA-MB-435 = tested on: MDA-MB-435
SNB-75 = tested on: SNB-75
MCF7 = tested on: MCF7
SW-620 = tested on: SW-620
HL-60 = tested on: HL-60
Hs-578T = tested on: Hs-578T
MDA-N = tested on: MDA-N
T47D = tested on: T47D
TK-10 = tested on: TK-10
MDA-MB-231 = tested on: MDA-MB-231
NCI/ADR-RES = tested on: NCI/ADR-RES
PC-3 = tested on: PC-3
LOX IMVI = tested on: LOX IMVI

Q: `O=C1C=C(Nc2ccccc2C(=O)CC(=O)C(=O)Nc2ccc(Cl)c(Cl)c2)c2ccccc2C1=O` was tested. Which GI50 (SN12C) did it give?
A: 35.1 µM (inactive)

Q: What about the GI50 (786-0) of the same compound?
A: 35.3 µM (inactive)

Q: And the GI50 (NCI-H23)?
A: 21.1 µM (inactive)

Q: What about the GI50 (UACC-257) of the same compound?
A: 20.9 µM (inactive)

Q: And the GI50 (SF-295)?
A: 59 µM (inactive)

Q: And the GI50 (U-251)?
A: 34.7 µM (inactive)

Q: And the GI50 (NCI-H522)?
A: 18.6 µM (inactive)

Q: What about the GI50 (CAKI-1) of the same compound?
A: 87.3 µM (inactive)

Q: What about the GI50 (SF-268) of the same compound?
A: 19.9 µM (inactive)

Q: What about the GI50 (MOLT-4) of the same compound?
A: 3.72 µM (inactive)

Q: What about the GI50 (OVCAR-3) of the same compound?
A: 34.4 µM (inactive)

Q: And the GI50 (UACC-62)?
A: 23.6 µM (inactive)

Q: And the GI50 (OVCAR-4)?
A: 59.4 µM (inactive)

Q: And the GI50 (UO-31)?
A: 50.7 µM (inactive)

Q: And the GI50 (SK-MEL-28)?
A: 10.6 µM (inactive)

Q: And the GI50 (HOP-92)?
A: 75.9 µM (inactive)

Q: What about the GI50 (DLD-1) of the same compound?
A: 19.7 µM (inactive)

Q: What about the GI50 (NCI-H460) of the same compound?
A: 36.2 µM (inactive)

Q: What about the GI50 (HT-29) of the same compound?
A: > 100 µM (inactive)

Q: What about the GI50 (A498) of the same compound?
A: > 100 µM (inactive)

Q: What about the GI50 (CCRF-CEM) of the same compound?
A: 4.76 µM (inactive)

Q: What about the GI50 (OVCAR-5) of the same compound?
A: > 100 µM (inactive)

Q: What about the GI50 (HCT-116) of the same compound?
A: > 10 µM (inactive)

Q: What about the GI50 (HCT-15) of the same compound?
A: 20.4 µM

Q: What about the GI50 (SR) of the same compound?
A: 5 µM (inactive)

Q: What about the GI50 (SF-539) of the same compound?
A: 51.2 µM (inactive)

Q: What about the GI50 (NCI-H226) of the same compound?
A: 55.5 µM (inactive)

Q: And the GI50 (K562)?
A: 12.2 µM (inactive)

Q: What about the GI50 (RPMI-8226) of the same compound?
A: 35.6 µM (inactive)

Q: And the GI50 (COLO 205)?
A: > 100 µM (inactive)

Q: What about the GI50 (SK-OV-3) of the same compound?
A: > 100 µM (inactive)

Q: What about the GI50 (RXF 393) of the same compound?
A: 71.3 µM (inactive)

Q: And the GI50 (EKVX)?
A: > 10 µM (inactive)

Q: And the GI50 (A549)?
A: 53.1 µM (inactive)

Q: And the GI50 (SK-MEL-5)?
A: 7.78 µM (inactive)

Q: What about the GI50 (SNB-78) of the same compound?
A: 5.31 µM (inactive)

Q: What about the GI50 (SNB-19) of the same compound?
A: 37.5 µM (inactive)

Q: What about the GI50 (OVCAR-8) of the same compound?
A: 26.7 µM (inactive)

Q: What about the GI50 (HCC 2998) of the same compound?
A: > 100 µM (inactive)

Q: What about the GI50 (SK-MEL-2) of the same compound?
A: 30.6 µM (inactive)

Q: What about the GI50 (IGROV-1) of the same compound?
A: > 100 µM (inactive)

Q: And the GI50 (M14)?
A: 32.1 µM (inactive)

Q: And the GI50 (Malme-3M)?
A: 12.6 µM (inactive)

Q: And the GI50 (KM12)?
A: 59.6 µM (inactive)

Q: What about the GI50 (DMS-114) of the same compound?
A: 18.2 µM (inactive)

Q: And the GI50 (ACHN)?
A: 73.5 µM (inactive)

Q: And the GI50 (M19-MEL)?
A: 3.98 µM (inactive)

Q: What about the GI50 (HOP-62) of the same compound?
A: > 100 µM (inactive)

Q: For `O=C1Oc2ccccc2C(=O)/C1=C1/C=C(c2ccccc2)SS1`, which GI50 (DU-145) is on record?
A: 85.5 µM (inactive)

Q: What about the GI50 (SN12C) of the same compound?
A: 69 µM (inactive)

Q: And the GI50 (786-0)?
A: > 100 µM (inactive)

Q: And the GI50 (NCI-H23)?
A: > 100 µM (inactive)

Q: What about the GI50 (BT-549) of the same compound?
A: > 100 µM (inactive)

Q: And the GI50 (UACC-257)?
A: > 100 µM (inactive)

Q: And the GI50 (SF-295)?
A: > 100 µM (inactive)

Q: What about the GI50 (U-251) of the same compound?
A: 76 µM (inactive)

Q: What about the GI50 (NCI-H522) of the same compound?
A: 49.3 µM (inactive)

Q: And the GI50 (MDA-MB-435)?
A: 48.9 µM (inactive)

Q: What about the GI50 (CAKI-1) of the same compound?
A: 49.2 µM (inactive)

Q: What about the GI50 (SF-268) of the same compound?
A: 86.7 µM (inactive)

Q: And the GI50 (MOLT-4)?
A: 30.4 µM (inactive)

Q: And the GI50 (SNB-75)?
A: > 100 µM (inactive)

Q: And the GI50 (OVCAR-3)?
A: 71.1 µM (inactive)

Q: What about the GI50 (UACC-62) of the same compound?
A: 82.8 µM (inactive)

Q: What about the GI50 (OVCAR-4) of the same compound?
A: 91 µM (inactive)

Q: And the GI50 (MCF7)?
A: > 100 µM (inactive)

Q: And the GI50 (UO-31)?
A: > 100 µM (inactive)

Q: And the GI50 (SK-MEL-28)?
A: > 100 µM (inactive)

Q: What about the GI50 (SW-620) of the same compound?
A: > 100 µM (inactive)

Q: And the GI50 (HL-60)?
A: 21.9 µM (inactive)

Q: And the GI50 (HOP-92)?
A: 15.6 µM (inactive)

Q: What about the GI50 (NCI-H460) of the same compound?
A: > 100 µM (inactive)

Q: What about the GI50 (HT-29) of the same compound?
A: 40.6 µM (inactive)

Q: What about the GI50 (A498) of the same compound?
A: > 100 µM (inactive)

Q: What about the GI50 (Hs-578T) of the same compound?
A: > 100 µM (inactive)

Q: What about the GI50 (MDA-N) of the same compound?
A: 34.8 µM (inactive)

Q: What about the GI50 (CCRF-CEM) of the same compound?
A: 22.6 µM (inactive)

Q: What about the GI50 (OVCAR-5) of the same compound?
A: > 100 µM (inactive)

Q: And the GI50 (HCT-116)?
A: 56.6 µM (inactive)

Q: And the GI50 (T47D)?
A: > 100 µM (inactive)

Q: What about the GI50 (HCT-15) of the same compound?
A: 40 µM

Q: What about the GI50 (SR) of the same compound?
A: 28.3 µM (inactive)

Q: And the GI50 (TK-10)?
A: > 100 µM (inactive)

Q: What about the GI50 (SF-539) of the same compound?
A: > 100 µM (inactive)

Q: What about the GI50 (NCI-H226) of the same compound?
A: 24.3 µM (inactive)

Q: What about the GI50 (K562) of the same compound?
A: 42.5 µM (inactive)

Q: And the GI50 (RPMI-8226)?
A: > 100 µM (inactive)

Q: And the GI50 (COLO 205)?
A: 57.5 µM (inactive)

Q: What about the GI50 (SK-OV-3) of the same compound?
A: > 100 µM (inactive)

Q: What about the GI50 (RXF 393) of the same compound?
A: 63.2 µM (inactive)

Q: And the GI50 (MDA-MB-231)?
A: 80.4 µM (inactive)

Q: And the GI50 (EKVX)?
A: > 100 µM (inactive)

Q: And the GI50 (A549)?
A: > 100 µM (inactive)

Q: What about the GI50 (SK-MEL-5) of the same compound?
A: > 100 µM (inactive)

Q: What about the GI50 (NCI/ADR-RES) of the same compound?
A: 60.1 µM (inactive)

Q: What about the GI50 (SNB-19) of the same compound?
A: 81.8 µM (inactive)

Q: What about the GI50 (PC-3) of the same compound?
A: > 100 µM (inactive)

Q: And the GI50 (LOX IMVI)?
A: 64.7 µM (inactive)

Q: And the GI50 (OVCAR-8)?
A: > 100 µM (inactive)

Q: And the GI50 (HCC 2998)?
A: 96.8 µM (inactive)

Q: And the GI50 (SK-MEL-2)?
A: > 100 µM (inactive)

Q: What about the GI50 (IGROV-1) of the same compound?
A: 86.5 µM (inactive)

Q: And the GI50 (M14)?
A: 43.8 µM (inactive)

Q: What about the GI50 (Malme-3M) of the same compound?
A: 96.4 µM (inactive)

Q: And the GI50 (KM12)?
A: > 100 µM (inactive)

Q: And the GI50 (ACHN)?
A: > 100 µM (inactive)

Q: And the GI50 (HOP-62)?
A: > 100 µM (inactive)
